From PubChem BioAssay AID248 (DTP/NCI, 2004)
Where “and” joins values, the source holds several entries; their conditions need not be identical. Equal entries are not always repeated. Toxic doses and inconclusive results are not listed. Cut-off read from the data, not from the text of the source: active = T/C of 150% or more; inactive = T/C below 125%.

System: L1210 leukemia ip in BDF1 mice, survival T/C
Experiment: NCI In Vivo Anticancer Drug Screen. Data for tumor model L1210 Leukemia (intraperitoneal) in B6D2F1 (BDF1) mice
Conditions: endpoint: mean survival time, higher = longer survival
Outline: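 Antitumor effect is assessed in tumor-bearing animals. Survival in the compound arm is compared with a vehicle-dosed control arm and expressed as their quotient.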

[1] = dose: 50.0 mg/kg/injection, schedule: Q04DX002 (ip), vehicle: Klucel (hydroxypropylcellulose) (HPC)
[2] = dose: 100.0 mg/kg/injection, schedule: Q04DX002 (ip), vehicle: Klucel (hydroxypropylcellulose) (HPC)
[3] = dose: 200.0 mg/kg/injection, schedule: Q04DX002 (ip), vehicle: Klucel (hydroxypropylcellulose) (HPC)
[4] = dose: 100.0 mg/kg/injection, schedule: Q01DX009 (ip), vehicle: Klucel (hydroxypropylcellulose) (HPC)
[5] = dose: 100.0 mg/kg/injection, schedule: Q04DX003 (ip), vehicle: Klucel (hydroxypropylcellulose) (HPC)
[6] = dose: 200.0 mg/kg/injection, schedule: Q01DX009 (ip), vehicle: Klucel (hydroxypropylcellulose) (HPC)
[7] = dose: 200.0 mg/kg/injection, schedule: Q04DX003 (ip), vehicle: Klucel (hydroxypropylcellulose) (HPC)
[8] = dose: 400.0 mg/kg/injection, schedule: Q01DX009 (ip), vehicle: Klucel (hydroxypropylcellulose) (HPC)
[9] = dose: 400.0 mg/kg/injection, schedule: Q04DX003 (ip), vehicle: Klucel (hydroxypropylcellulose) (HPC)
[10] = dose: 100.0 mg/kg/injection, schedule: Q04DX002 (ip), vehicle: saline
[11] = dose: 200.0 mg/kg/injection, schedule: Q04DX002 (ip), vehicle: saline
[12] = dose: 400.0 mg/kg/injection, schedule: Q04DX002 (ip), vehicle: saline
[13] = dose: 25.0 mg/kg/injection, schedule: Q01DX009 (ip), vehicle: Klucel (hydroxypropylcellulose) (HPC)
[14] = dose: 50.0 mg/kg/injection, schedule: Q01DX009 (ip), vehicle: Klucel (hydroxypropylcellulose) (HPC)

Measured: T/C

NC(=S)N/N=C/c1c(Cl)n(-c2ccccc2)c2ccccc12
inactive: [1] 87 % of control | [2] 87 % of control | [3] 93 % of control

CC(C)(C1c2ccccc2C(=O)c2ccccc21)[N+](=O)[O-]
inactive: [4] 101 % of control | [5] 98 % of control | [6] 94 % of control | [7] 101 % of control | [8] 99 % of control | [9] 101 % of control

OC(c1cccc2ccccc12)c1c2ccccc2cc2ccccc12 (stereo unspecified)
inactive: dose: 50.0 mg/kg/injection, schedule: Q01DX009 (ip), vehicle: saline 96 % of control | dose: 100.0 mg/kg/injection, schedule: Q01DX005 (ip), vehicle: saline 98 % of control | dose: 100.0 mg/kg/injection, schedule: Q01DX009 (ip), vehicle: saline 102 % of control and 104 % of control | [10] 93 % of control | dose: 200.0 mg/kg/injection, schedule: Q01DX005 (ip), vehicle: saline 103 % of control | dose: 200.0 mg/kg/injection, schedule: Q01DX009 (ip), vehicle: saline 100 % of control | [11] 97 % of control | dose: 400.0 mg/kg/injection, schedule: Q01DX005 (ip), vehicle: saline 106 % of control | dose: 400.0 mg/kg/injection, schedule: Q01DX009 (ip), vehicle: saline 108 % of control and 91 % of control | [12] 97 % of control

O=C(CCCCCCCCC(=O)c1ccc2ccccc2c1O)c1ccc2ccccc2c1O
inactive: dose: 100.0 mg/kg/injection, schedule: Q01DX001 (ip), vehicle: Klucel (hydroxypropylcellulose) (HPC) 87 % of control | [4] 94 % of control | dose: 200.0 mg/kg/injection, schedule: Q01DX001 (ip), vehicle: Klucel (hydroxypropylcellulose) (HPC) 89 % of control | [6] 91 % of control | dose: 400.0 mg/kg/injection, schedule: Q01DX001 (ip), vehicle: Klucel (hydroxypropylcellulose) (HPC) 105 % of control | [8] 96 % of control

Oc1ccccc1C1SCSCS1
inactive: [5] 97 % of control | [7] 98 % of control | [9] 103 % of control

CCOC(=O)c1ccc(N=Cc2cccc([N+](=O)[O-])c2)cc1
inactive: [5] 89 % of control | [7] 88 % of control | [9] 96 % of control

CCS(=O)(=O)/C=C/c1ccco1
inactive: dose: 12.5 mg/kg/injection, schedule: Q04DX003 (ip), vehicle: carboxymethylcellulose (CMC) 98 % of control | dose: 25.0 mg/kg/injection, schedule: Q04DX003 (ip), vehicle: carboxymethylcellulose (CMC) 95 % of control

COC(=O)c1cc([N+](=O)[O-])cc([N+](=O)[O-])c1Br
inactive: dose: 3.0 mg/kg/injection, schedule: Q01DX009 (ip), vehicle: saline with Tween-80 100 % of control | dose: 6.0 mg/kg/injection, schedule: Q01DX009 (ip), vehicle: saline with Tween-80 98 % of control | dose: 12.0 mg/kg/injection, schedule: Q01DX009 (ip), vehicle: saline with Tween-80 98 % of control | dose: 12.5 mg/kg/injection, schedule: Q01DX009 (ip), vehicle: Klucel (hydroxypropylcellulose) (HPC) 96 % of control | dose: 12.5 mg/kg/injection, schedule: Q04DX003 (ip), vehicle: Klucel (hydroxypropylcellulose) (HPC) 100 % of control | [13] 89 % of control | dose: 25.0 mg/kg/injection, schedule: Q04DX003 (ip), vehicle: Klucel (hydroxypropylcellulose) (HPC) 94 % of control | dose: 50.0 mg/kg/injection, schedule: Q04DX003 (ip), vehicle: Klucel (hydroxypropylcellulose) (HPC) 94 % of control

CCC[CH2][Sn]([CH2]C)([CH2]C)[CH2]C
inactive: [10] 96 % of control | [11] 101 % of control

Nc1nc2c(ncn2-c2cccc(Cl)c2)c(=O)[nH]1
inactive: dose: 100.0 mg/kg/injection, schedule: Q04DX003 (ip), vehicle: saline with Tween-80 95 % of control | dose: 200.0 mg/kg/injection, schedule: Q04DX003 (ip), vehicle: saline with Tween-80 91 % of control

CN(C)c1ccc(C=C(Cl)Cl)cc1
inactive: dose: 50.0 mg/kg/injection, schedule: Q01DX005 (ip), vehicle: other 108 % of control | dose: 50.0 mg/kg/injection, schedule: Q01DX009 (ip), vehicle: other 96 % of control | dose: 100.0 mg/kg/injection, schedule: Q01DX005 (ip), vehicle: other 108 % of control | dose: 100.0 mg/kg/injection, schedule: Q01DX009 (ip), vehicle: other 107 % of control | dose: 200.0 mg/kg/injection, schedule: Q01DX005 (ip), vehicle: other 112 % of control | dose: 200.0 mg/kg/injection, schedule: Q01DX009 (ip), vehicle: other 100 % of control

CC(C)Cc1ccc(C[N+]23CN4CN(CN(C4)C2)C3)cc1
inactive: dose: 75.0 mg/kg/injection, schedule: Q01DX001 (ip), vehicle: saline 100 % of control | dose: 150.0 mg/kg/injection, schedule: Q01DX001 (ip), vehicle: saline 96 % of control | dose: 300.0 mg/kg/injection, schedule: Q01DX001 (ip), vehicle: saline 102 % of control

Cc1ncc(CC#N)c2c1OC(C)(C)OC2
inactive: dose: 12.5 mg/kg/injection, schedule: Q01DX001 (ip), vehicle: carboxymethylcellulose (CMC) 107 % of control | dose: 25.0 mg/kg/injection, schedule: Q01DX001 (ip), vehicle: carboxymethylcellulose (CMC) 104 % of control | dose: 50.0 mg/kg/injection, schedule: Q01DX001 (ip), vehicle: carboxymethylcellulose (CMC) 101 % of control

CCNC(=S)Nc1ccccc1
inactive: dose: 37.5 mg/kg/injection, schedule: Q01DX009 (ip), vehicle: Klucel (hydroxypropylcellulose) (HPC) 102 % of control | dose: 75.0 mg/kg/injection, schedule: Q01DX009 (ip), vehicle: Klucel (hydroxypropylcellulose) (HPC) 104 % of control | dose: 150.0 mg/kg/injection, schedule: Q01DX009 (ip), vehicle: Klucel (hydroxypropylcellulose) (HPC) 115 % of control

CCOC(=O)c1cccnc1NC(=O)c1ccccc1
inactive: [1] 97 % of control | [2] 97 % of control and 103 % of control | [3] 100 % of control and 101 % of control | dose: 800.0 mg/kg/injection, schedule: Q04DX002 (ip), vehicle: Klucel (hydroxypropylcellulose) (HPC) 105 % of control

CC(=O)N(C)c1ccc(NC(=O)Nc2c(C)cccc2C)cc1
inactive: dose: 25.0 mg/kg/injection, schedule: Q04DX002 (ip), vehicle: saline 94 % of control | [14] 96 % of control | dose: 50.0 mg/kg/injection, schedule: Q04DX002 (ip), vehicle: saline 93 % of control | [4] 98 % of control | [10] 96 % of control | [6] 102 % of control | [11] 110 % of control and 112 % of control | [8] 96 % of control | [12] 94 % of control

C=C(C)CCC1C(=O)N(c2ccccc2)N(c2ccccc2)C1=O
inactive: [13] 103 % of control | [14] 95 % of control | [4] 100 % of control

CC(=O)Nc1ccc(-c2cnc3ccccc3c2)cc1
inactive: dose: 5.0 mg/kg/injection, schedule: Q01DX001 (ip), vehicle: saline 106 % of control | dose: 10.0 mg/kg/injection, schedule: Q01DX001 (ip), vehicle: saline 106 % of control | dose: 20.0 mg/kg/injection, schedule: Q01DX001 (ip), vehicle: saline 97 % of control | dose: 40.0 mg/kg/injection, schedule: Q01DX001 (ip), vehicle: saline 90 % of control | dose: 80.0 mg/kg/injection, schedule: Q01DX001 (ip), vehicle: saline 95 % of control
